Patent US20220153746A1, “NITROGEN OXIDE-DONATING PDE-5 AND/OR PDE-6 INHIBITOR COMPOUNDS, AND USES THEREOF” (ILDONG PHARMACEUTICAL CO., LTD., priority 2020, published 2022)
Where “and” joins values, the source holds several entries; their conditions need not be identical. Identical values can stand only once.

Experiment: TD Phase (Groups 1 and 3): plasma and ocular tissue concentrations and pharmacokinetics of Compound 18 and its metabolite Compound 4 after once daily ocular instillation of Compound 18 nanosuspension for 7 days
Format: in vivo, New Zealand white rabbits
Conditions: for Compound 18 Lens Homogenate Conc.: homogenate dilution factor 5; for Compound 18 Iris/Ciliary Body Homogenate Conc. / Compound 18 Optic Nerve Homogenate Conc. / Compound 18 Retina Homogenate Conc. / Compound 18 Trahecular Meshwork Homogenate Conc.: homogenate dilution factor 20; for Cornea homogenate concentration: homogenate dilution factor 15
Source text: This example illustrates the procedures and results for the levels of Compound 18 and its metabolite Compound 4 in plasma and ocular tissues of normotensive rabbits following ocular instillation of Compound 18 once daily for 7 consecutive days.
Twenty five (25) male New Zealand white rabbits were divided into 5 groups of varying amounts of animals per group.
The Test article, Compound 18 was formulated as a 2% nanosuspension in DI water containing 0.2% PS80 (polyoxyethylenesorbitan, monooleate (Tween 80)) and 0.4% HPMC (hydroxypropylmethylcellulose) at pH 6.77. Referred to herein as “Compound 18 nanosuspension.”
The study consisted of three groups (Groups 1-3) of 19 male rabbits (NZW) that underwent once daily morning ocular installation (1 eyedrop) for 7 consecutive days (Day 0-6). Groups 4-5 each consisted of 3 male rabbits (NZW) that were not dosed.
Blood samples (1 mL) were collected from the jugular vein at the intervals set out below for each group. The samples were then inverted several times following collection and held on wet ice until centrifuged. Samples were centrifuged within 60 minutes of collection under refrigeration (set at 5° C. for 10 minutes at 2000 g.
Group 1 (Pilot Study, terminal blood collection): blood was collected from 3 animals at 1 hour post day 7 dose of Compound 18 nanosuspension.
Group 3 (TD Phase, terminal blood collection): blood was collected from 3 animals at 0.5 hour, 3 animals at 2 hours, 3 animals at 4 hours, and 3 animals at 8 hours post day 7 dose of Compound 18 nanosuspension.
(§1) Group 1 (Pilot Study): 3 animals were terminated at 1 hour post Day 7 dose of Compound 18 nanosuspension. Following blood collection and termination, ocular tissues (aqueous humor, vitreous humor, cornea, iris/ciliary body, lens, optic nerve, retina, sclera/choroid, and trabecular meshwork) were collected from each animal and the tissue weights were recorded. Note: sclera and choroid were collected together. Iris and ciliary body were collected together.
as §1, with “3 (TD Phase):” for “1 (Pilot Study):”, “0.5 hour, 3 animals at 2 hours, 3 animals at 4 hours, and 3 animals at 8 hours” for “1 hour”
Plasma and tissue samples from treated animals (Groups 1-3) were analyzed for Compound 18 and its metabolite Compound 4 concentrations by LC-MS/MS.
Pharmacokinetic analysis was conducted using WinNonlin Version 6.2.1 (Pharsight, Mountain View, Calif.), operating as a validated software system. Noncompartmental analysis was conducted using the extravascular administration model for ocular instillation dosing.
The peak plasma and ocular tissue concentration, time to achieve peak plasma and ocular tissue concentration, half-life, and area under the plasma and ocular tissue concentration-time curve (Cmax, Tmax, T1/2, and AUC) were calculated from the TD phase combined with the pilot study mean animal plasma and ocular tissue concentrations for each sampling time/dose group for Compound 18 and its metabolite Compound 4.
BA Assay: Quantitation Range 0.05 to 100 ng/mL for Compound 18, 0.15 to 100 ng/mL for Compound 4.
3. Pipet 50 μL of each type of pre-spiked ocular tissue samples (AH/VH) for QC samples, 50 μL of incurred aqueous humor, and vitreous humor sample (if applicable) into a 96 well plate.
Ocular Tissues Homogenate Preparation: Incurred rabbit ocular tissues were weighed in Genogrinder tubes (plastic tubes with small beads) at the time of removal from the animal and stored frozen (<−70° C.) until analysis. The rabbit incurred ocular tissues were thawed on wet ice. […]

[1] = TD Phase, Group 1, 1 h, individual animals
[2] = TD Phase, Group 1, 1 h, individual animals, BQL set to 0
[3] = TD Phase, Group 3, 0.5 h, individual animals
[4] = TD Phase, Group 3, 0.5 h, individual animals, BQL set to 0
[5] = TD Phase, Group 3, 2 h, individual animals
[6] = TD Phase, Group 3, 2 h, individual animals, BQL set to 0

## CCCc1nn(C)c2c(=O)[nH]c(-c3cc(S(=O)(=O)N4CC(CCCO[N+](=O)[O-])C4)ccc3OCC)nc12 [Compound 18, 3-(1-((4-ethoxy-3-(1-methyl-7-oxo-3-propyl-6,7-dihydro-1H-pyrazolo[4,3-d]pyrimidin-5-yl)phenyl)sulfonyl)azetidin-3-yl)propyl nitrate]
Iris/Ciliary Body, Day 7, Compound 18 0.8 mg/kg ocular instillation once daily, Groups 1 and 3
  AUC0-8: 150 ng·h/g
TD Phase, Group 1, 1 h, Mean, BQL set to 0
  Compound 18 Vitreous Humor Conc.: BQL (BQL = Below lower limit of quantitation (0.0500 ng/mL for Compound 18)
[1]
  Compound 18 Aqueous Humor Conc.: BQL (BQL = Below lower limit of quantitation (0.0500 ng/mL for Compound 18)
  Compound 18 Plasma Conc.: BQL^a (BQL = Below lower limit of quantitation (0.0500 ng/mL for Compound 18) and 0.0581 ng/mL
  Compound 18 Vitreous Humor Conc.: BQL (BQL = Below lower limit of quantitation (0.0500 ng/mL for Compound 18)
  Final Compound 18 Optic Nerve Conc.: 192 ng/g and 266 ng/g
  Compound 18 Lens Homogenate Conc.: BQL (BQL = Below lower limit of quantitation (0.0500 ng/mL for Compound 18)
  Compound 18 Iris/Ciliary Body Homogenate Conc.: BQL (BQL = Below lower limit of quantitation (0.0500 ng/mL for Compound 18) and 0.934 ng/mL and 15.1 ng/mL
  Compound 18 Optic Nerve Homogenate Conc.: 9.59 ng/mL and 13.3 ng/mL
  Compound 18 Retina Homogenate Conc.: 0.312 ng/mL and 1.01 ng/mL and 1.39 ng/mL
  Compound 18 Trahecular Meshwork Homogenate Conc.: BQL (BQL = Below lower limit of quantitation (0.0500 ng/mL for Compound 18)
[2]
  Final Compound 18 Iris/Ciliary Body Conc.: 0 ng/g and 18.7 ng/g and 302 ng/g
  Final Compound 18 Lens Conc.: 0 ng/g
  Final Compound 18 Retina Conc.: 6.24 ng/g and 20.2 ng/g and 27.8 ng/g
TD Phase, Group 3, 0.5 h, Mean, BQL set to 0
  Compound 18 Aqueous Humor Conc.: BQL (BQL = Below lower limit of quantitation (0.0500 ng/mL for Compound 18)
[3]
  Compound 18 Aqueous Humor Conc.: BQL^a (BQL = Below lower limit of quantitation (0.0500 ng/mL for Compound 18)
  Compound 18 Plasma Conc.: 0.627 ng/mL and 0.0972 ng/mL and 0.0599 ng/mL
  Compound 18 Vitreous Humor Conc.: BQL^a (BQL = Below lower limit of quantitation (0.0500 ng/mL for Compound 18)
  Final Compound 18 Optic Nerve Conc.: 116 ng/g and 30.4 ng/g and 183 ng/g
  Final Compound 18 Sclera/Choroid Conc.: 88.8 ng/g and 47.2 ng/g and 186 ng/g
  Compound 18 Lens Homogenate Conc.: BQL^1 (BQL = Below lower limit of quantitation (0.0500 ng/mL for Compound 18)
  Cornea homogenate concentration: BQL^a (BQL = Below lower limit of quantitation (0.0500 ng/mL for Compound 18)
  Compound 18 Iris/Ciliary Body Homogenate Conc.: 0.112 ng/mL and BQL^a (BQL = Below lower limit of quantitation (0.0500 ng/mL for Compound 18) and 13.4 ng/mL
  Compound 18 Optic Nerve Homogenate Conc.: 5.79 ng/mL and 1.52 ng/mL and 9.17 ng/mL
  Compound 18 Retina Homogenate Conc.: 1.01 ng/mL and 1.49 ng/mL
  Compound 18 Trahecular Meshwork Homogenate Conc.: BQL^a (BQL = Below lower limit of quantitation (0.0500 ng/mL for Compound 18)
[4]
  Final Compound 18 Iris/Ciliary Body Conc.: 2.24 ng/g and 0 ng/g and 268 ng/g
  Final Compound 18 Lens Conc.: 0 ng/g (2×) and 6.35 ng/g
  Final Compound 18 Retina Conc.: 20.2 ng/g and 29.8 ng/g
TD Phase, Group 3, 0.5 h, individual animals, homogenate dilution factor 8
  Compound 18 Sclera/Choroid Homogenate Conc.: 11.1 ng/mL and 5.90 ng/mL and 23.3 ng/mL
TD Phase, Group 3, 2 h, Mean, BQL set to 0
  Compound 18 Aqueous Humor Conc.: BQL (BQL = Below lower limit of quantitation (0.0500 ng/mL for Compound 18)
[5]
  Compound 18 Aqueous Humor Conc.: BQL (BQL = Below lower limit of quantitation (0.0500 ng/mL for Compound 18)
  Compound 18 Plasma Conc.: BQL (BQL = Below lower limit of quantitation (0.0500 ng/mL for Compound 18)
  Compound 18 Vitreous Humor Conc.: BQL (BQL = Below lower limit of quantitation (0.0500 ng/mL for Compound 18)
  Final Compound 18 Optic Nerve Conc.: 24.4 ng/g and 1030 ng/g and 79.0 ng/g
  Compound 18 Lens Homogenate Conc.: BQL (BQL = Below lower limit of quantitation (0.0500 ng/mL for Compound 18)
  Cornea homogenate concentration: BQL (BQL = Below lower limit of quantitation (0.0500 ng/mL for Compound 18)
  Compound 18 Iris/Ciliary Body Homogenate Conc.: 0.0637 ng/mL and 0.772 ng/mL and BQL (BQL = Below lower limit of quantitation (0.0500 ng/mL for Compound 18)
  Compound 18 Optic Nerve Homogenate Conc.: 1.22 ng/mL and 51.5 ng/mL and 3.95 ng/mL
[6]
  Final Compound 18 Iris/Ciliary Body Conc.: 1.27 ng/g and 15.4 ng/g and 0 ng/g
  Final Compound 18 Lens Conc.: 0 ng/g
  Final Compound 18 Retina Conc.: 31.5 ng/g and 69.4 ng/g and 3.40 ng/g
